Activity calls are given as the source filed them.
Tests used:
[1] = Trypanosoma cruzi growth suppression in host cells – NIH3T3 host cells, beta-gal luminescence, confirmation (AID 2044); assay type: functional, cell-based;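 note: intracellular parasites grown in NIH/3T3 mouse fibroblasts as host cells; luminescent beta-galactosidase reporter signal from transgenic T. cruzi replicating inside host cells; inhibitors lower the luminescence signal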
Hexokinase-1 = molecular target: T1, Hexokinase-1 (Homo sapiens, UniProt P19367); test: HK1 enzyme activation by HKDC1 hits – biochemical, selectivity assay for HKDC1 activator project, dose response (AID 504762); assay type: functional
T1 sequence (P19367 whole entry): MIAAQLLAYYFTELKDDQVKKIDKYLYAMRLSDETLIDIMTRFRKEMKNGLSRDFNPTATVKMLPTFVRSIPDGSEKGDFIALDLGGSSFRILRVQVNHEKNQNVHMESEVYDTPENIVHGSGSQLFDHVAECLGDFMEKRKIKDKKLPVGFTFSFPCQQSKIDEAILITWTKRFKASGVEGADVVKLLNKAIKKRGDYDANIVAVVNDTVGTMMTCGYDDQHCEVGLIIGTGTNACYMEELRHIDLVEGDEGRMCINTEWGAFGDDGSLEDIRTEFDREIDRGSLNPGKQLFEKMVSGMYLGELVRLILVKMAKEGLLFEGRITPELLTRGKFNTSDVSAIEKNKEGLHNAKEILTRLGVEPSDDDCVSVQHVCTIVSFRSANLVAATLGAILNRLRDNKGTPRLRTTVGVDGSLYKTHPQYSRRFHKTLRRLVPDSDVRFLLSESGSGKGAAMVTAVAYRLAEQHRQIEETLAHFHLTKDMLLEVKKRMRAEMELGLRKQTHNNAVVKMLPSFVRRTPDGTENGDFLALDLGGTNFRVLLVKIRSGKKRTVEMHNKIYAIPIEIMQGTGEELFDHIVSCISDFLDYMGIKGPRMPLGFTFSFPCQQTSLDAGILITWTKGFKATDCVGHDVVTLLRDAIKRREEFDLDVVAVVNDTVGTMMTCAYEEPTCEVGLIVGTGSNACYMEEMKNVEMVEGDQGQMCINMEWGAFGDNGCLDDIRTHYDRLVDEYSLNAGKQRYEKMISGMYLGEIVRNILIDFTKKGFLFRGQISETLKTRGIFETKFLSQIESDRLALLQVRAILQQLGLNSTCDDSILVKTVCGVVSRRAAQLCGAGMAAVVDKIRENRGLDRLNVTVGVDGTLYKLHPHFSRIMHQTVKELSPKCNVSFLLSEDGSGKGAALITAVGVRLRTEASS

[2] = molecular target: T2, Heat shock factor protein 1 (Mus musculus, UniProt P38532); test: enhancement of HSF1-driven luciferase signal – cell-based, NIH3T3, luminescence, dose retest, confirmation (AID 435004); assay type: functional;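 note: stress induced by proteasome inhibitor MG132 added 30 min after compound; luciferase reporter driven by HSF1 response element in NIH3T3 cells; actives raise luminescence as potentiators of the MG132 stress response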
T2 sequence (P38532 whole entry): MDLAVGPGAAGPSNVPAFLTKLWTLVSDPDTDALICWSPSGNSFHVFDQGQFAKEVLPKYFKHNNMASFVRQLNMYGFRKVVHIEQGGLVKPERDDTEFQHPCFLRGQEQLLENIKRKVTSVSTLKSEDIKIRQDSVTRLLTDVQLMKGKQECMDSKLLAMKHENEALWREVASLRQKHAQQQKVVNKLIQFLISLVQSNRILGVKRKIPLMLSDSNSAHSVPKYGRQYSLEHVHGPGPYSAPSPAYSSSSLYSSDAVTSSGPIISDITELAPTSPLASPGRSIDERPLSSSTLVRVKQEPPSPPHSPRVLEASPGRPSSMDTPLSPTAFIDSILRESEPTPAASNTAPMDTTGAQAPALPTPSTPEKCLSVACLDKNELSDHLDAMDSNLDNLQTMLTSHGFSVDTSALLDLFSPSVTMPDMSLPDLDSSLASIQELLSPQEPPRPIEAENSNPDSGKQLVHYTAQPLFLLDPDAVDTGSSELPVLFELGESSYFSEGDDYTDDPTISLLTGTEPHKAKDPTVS

[3] = molecular target: T3, Apoptotic protease-activating factor 1 (Homo sapiens, UniProt O14727); assay type: functional
T3 sequence (O14727 whole entry): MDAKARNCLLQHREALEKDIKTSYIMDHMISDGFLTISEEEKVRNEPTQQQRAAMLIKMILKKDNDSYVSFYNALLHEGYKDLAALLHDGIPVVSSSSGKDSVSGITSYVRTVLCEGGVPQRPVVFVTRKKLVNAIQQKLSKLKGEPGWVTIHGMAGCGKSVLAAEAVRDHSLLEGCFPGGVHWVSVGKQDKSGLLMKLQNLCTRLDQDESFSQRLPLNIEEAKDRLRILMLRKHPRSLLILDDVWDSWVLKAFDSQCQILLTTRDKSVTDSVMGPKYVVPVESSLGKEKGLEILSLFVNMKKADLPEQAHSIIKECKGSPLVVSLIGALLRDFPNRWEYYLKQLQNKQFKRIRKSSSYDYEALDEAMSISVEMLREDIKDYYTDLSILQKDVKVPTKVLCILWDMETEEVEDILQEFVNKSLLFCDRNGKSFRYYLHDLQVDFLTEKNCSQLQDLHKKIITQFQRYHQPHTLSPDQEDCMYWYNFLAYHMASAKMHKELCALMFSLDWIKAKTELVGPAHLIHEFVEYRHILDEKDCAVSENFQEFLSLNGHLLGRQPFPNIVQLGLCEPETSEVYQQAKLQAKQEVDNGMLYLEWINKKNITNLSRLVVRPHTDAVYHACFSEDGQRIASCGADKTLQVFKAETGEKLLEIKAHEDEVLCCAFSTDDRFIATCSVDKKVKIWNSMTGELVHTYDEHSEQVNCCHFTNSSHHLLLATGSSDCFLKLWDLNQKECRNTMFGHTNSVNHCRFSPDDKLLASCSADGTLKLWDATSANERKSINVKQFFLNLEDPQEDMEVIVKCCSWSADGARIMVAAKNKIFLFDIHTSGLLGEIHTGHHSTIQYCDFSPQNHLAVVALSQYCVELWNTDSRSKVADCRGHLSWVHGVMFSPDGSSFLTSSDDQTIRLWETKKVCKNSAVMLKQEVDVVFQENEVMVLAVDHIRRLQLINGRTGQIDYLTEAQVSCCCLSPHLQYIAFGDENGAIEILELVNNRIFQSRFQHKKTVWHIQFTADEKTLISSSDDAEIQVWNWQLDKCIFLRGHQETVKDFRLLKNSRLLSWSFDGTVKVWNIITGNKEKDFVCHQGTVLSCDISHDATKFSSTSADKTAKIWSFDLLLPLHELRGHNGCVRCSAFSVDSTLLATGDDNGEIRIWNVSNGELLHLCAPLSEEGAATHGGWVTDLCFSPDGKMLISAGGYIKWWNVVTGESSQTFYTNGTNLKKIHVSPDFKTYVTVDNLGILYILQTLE

cells = assay type: functional
[4] = molecular target: Glucose-6-phosphate 1-dehydrogenase (Homo sapiens, UniProt P11413); test: inhibition of Homo sapiens G6PD, dose series – biochemical, fluorescence, selectivity assay for P. falciparum G6PD inhibitor project, dose response (AID 504792); assay type: functional
[5] = NIH3T3 cell viability loss – ATP luminescence, mouse fibroblasts, counter-screen, dose response (AID 2010); assay type: functional, cell-based;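 note: cells exposed to compound for about 90 hours before reading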
[6] = THP-1 cell cytotoxicity, dose response, cytotoxicity control for non-replicating M. tuberculosis project (AID 489025); assay type: functional

Sequence of Glucose-6-phosphate 1-dehydrogenase (P11413 whole entry): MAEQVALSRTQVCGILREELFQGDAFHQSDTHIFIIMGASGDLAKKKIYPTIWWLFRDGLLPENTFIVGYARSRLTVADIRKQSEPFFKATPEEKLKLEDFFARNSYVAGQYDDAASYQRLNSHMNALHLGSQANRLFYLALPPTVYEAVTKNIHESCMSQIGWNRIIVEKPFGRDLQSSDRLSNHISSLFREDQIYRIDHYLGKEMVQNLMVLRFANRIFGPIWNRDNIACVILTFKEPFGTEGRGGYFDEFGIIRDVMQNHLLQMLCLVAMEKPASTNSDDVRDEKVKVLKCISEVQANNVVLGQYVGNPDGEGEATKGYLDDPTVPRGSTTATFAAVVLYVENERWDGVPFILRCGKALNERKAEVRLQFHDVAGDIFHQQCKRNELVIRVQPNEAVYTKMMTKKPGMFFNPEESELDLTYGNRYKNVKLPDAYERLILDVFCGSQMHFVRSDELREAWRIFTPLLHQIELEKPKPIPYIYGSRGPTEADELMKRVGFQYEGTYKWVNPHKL

## Clc1ccc(/N=c2\ssnc2Cl)nc1
[1]
  EC50: 1.45 µM (active)
Hexokinase-1
  EC50: 65.4 µM (inactive)
[2]
  EC50: 16 µM (active)
[3]
  IC50: 14.3 µM (active)
cells
  IC50: 32.9 µM (active)
[4]
  IC50: > 80 µM (inactive)
[5]
  EC50: > 60 µM (not active)
[6]
  CC50: 17.5 µM (active)
